The source of these data is patent US12559506B2, “Indazole based compounds and associated methods of use” (Arvinas Operations, Inc., priority 2021, dated 2026).

Read-outs that look alike come from different tables or passages of the source. Some results are limits rather than exact numbers.

In the assay the target is T1, LRRK2 (endogenous, HiBit tagged) (Homo sapiens, UniProt Q5S007).
T1 construct: endogenous in cells; host or cells: HEK293 cells with HiBit knock-in at the endogenous LRRK2 locus, stably expressing firefly luciferase
T1 sequence (Q5S007 whole entry): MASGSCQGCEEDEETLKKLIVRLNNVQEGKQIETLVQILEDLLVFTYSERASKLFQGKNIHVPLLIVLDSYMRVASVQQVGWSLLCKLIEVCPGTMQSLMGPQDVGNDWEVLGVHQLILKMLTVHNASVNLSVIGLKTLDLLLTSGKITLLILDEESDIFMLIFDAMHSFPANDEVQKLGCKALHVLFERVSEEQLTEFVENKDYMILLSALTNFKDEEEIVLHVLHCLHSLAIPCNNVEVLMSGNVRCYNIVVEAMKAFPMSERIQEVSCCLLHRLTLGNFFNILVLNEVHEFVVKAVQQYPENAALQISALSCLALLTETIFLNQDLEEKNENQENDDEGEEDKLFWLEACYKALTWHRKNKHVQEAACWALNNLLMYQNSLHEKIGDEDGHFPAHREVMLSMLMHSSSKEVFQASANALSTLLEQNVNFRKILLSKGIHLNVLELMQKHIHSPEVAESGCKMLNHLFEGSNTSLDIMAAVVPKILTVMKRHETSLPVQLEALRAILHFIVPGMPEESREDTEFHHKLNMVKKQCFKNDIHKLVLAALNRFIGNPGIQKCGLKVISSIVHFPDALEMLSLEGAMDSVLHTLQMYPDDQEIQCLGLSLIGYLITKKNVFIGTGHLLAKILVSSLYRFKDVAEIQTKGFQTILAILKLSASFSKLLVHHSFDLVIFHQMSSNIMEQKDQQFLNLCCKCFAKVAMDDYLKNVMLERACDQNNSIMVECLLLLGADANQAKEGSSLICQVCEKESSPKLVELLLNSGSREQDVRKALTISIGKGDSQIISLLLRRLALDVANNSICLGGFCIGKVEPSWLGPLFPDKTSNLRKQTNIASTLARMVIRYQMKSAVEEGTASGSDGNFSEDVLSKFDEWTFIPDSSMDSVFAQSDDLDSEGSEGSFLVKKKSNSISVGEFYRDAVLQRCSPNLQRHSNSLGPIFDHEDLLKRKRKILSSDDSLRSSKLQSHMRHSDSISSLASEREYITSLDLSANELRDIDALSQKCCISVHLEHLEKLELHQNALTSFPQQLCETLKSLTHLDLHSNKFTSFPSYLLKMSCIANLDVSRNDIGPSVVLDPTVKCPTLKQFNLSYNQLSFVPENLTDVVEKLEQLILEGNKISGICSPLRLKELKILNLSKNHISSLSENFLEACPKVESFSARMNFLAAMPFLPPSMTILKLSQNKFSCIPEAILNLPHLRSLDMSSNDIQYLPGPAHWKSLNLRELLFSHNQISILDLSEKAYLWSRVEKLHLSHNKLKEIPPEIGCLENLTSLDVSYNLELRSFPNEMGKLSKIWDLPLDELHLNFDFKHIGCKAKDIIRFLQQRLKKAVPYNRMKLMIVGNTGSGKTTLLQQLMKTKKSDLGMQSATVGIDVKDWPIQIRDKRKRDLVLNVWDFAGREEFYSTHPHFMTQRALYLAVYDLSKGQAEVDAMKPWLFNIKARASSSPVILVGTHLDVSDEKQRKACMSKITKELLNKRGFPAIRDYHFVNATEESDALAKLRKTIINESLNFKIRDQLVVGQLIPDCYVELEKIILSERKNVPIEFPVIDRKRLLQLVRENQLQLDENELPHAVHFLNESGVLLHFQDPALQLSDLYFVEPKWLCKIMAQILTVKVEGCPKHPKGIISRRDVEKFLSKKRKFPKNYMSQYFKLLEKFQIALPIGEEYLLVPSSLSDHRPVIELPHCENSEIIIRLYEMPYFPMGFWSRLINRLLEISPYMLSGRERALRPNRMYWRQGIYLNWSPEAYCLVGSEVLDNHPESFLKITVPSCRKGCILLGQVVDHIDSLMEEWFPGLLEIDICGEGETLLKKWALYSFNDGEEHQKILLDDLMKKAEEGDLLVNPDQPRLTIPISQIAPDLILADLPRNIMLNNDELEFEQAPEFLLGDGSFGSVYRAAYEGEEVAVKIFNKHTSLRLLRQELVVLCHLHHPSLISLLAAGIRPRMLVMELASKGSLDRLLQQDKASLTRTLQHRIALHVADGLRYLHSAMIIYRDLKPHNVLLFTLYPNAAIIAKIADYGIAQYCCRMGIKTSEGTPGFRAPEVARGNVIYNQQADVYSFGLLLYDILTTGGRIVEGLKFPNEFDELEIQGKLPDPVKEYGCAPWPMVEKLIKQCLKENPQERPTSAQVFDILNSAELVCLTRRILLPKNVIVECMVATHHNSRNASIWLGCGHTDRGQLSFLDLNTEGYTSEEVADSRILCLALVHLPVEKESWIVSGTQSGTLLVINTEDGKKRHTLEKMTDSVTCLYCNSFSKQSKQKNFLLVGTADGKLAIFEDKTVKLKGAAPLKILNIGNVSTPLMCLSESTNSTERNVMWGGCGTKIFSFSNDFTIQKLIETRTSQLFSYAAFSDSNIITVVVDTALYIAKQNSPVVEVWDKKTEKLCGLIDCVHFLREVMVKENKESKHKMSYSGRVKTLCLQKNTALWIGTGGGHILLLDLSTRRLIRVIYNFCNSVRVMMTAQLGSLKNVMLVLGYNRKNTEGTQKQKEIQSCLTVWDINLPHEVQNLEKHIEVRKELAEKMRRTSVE
The assay can be described thus: Endogenous LRRK2 degradation assay, endogenous gene C-terminally HiBit-tagged in HEK293 cells (Nano-Glo Dual Luciferase). In kind it is cell-based. The procedure, abridged: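 LRRK2-HiBit quantified via Nano-Glo Dual Luciferase in HEK293 knock-in cells co-expressing firefly luciferase, after 24 h exposure to compound (1 μM final top, 1:3, 11 points). Values normalised to DMSO median per plate and curve-fitted; Alamar Blue viability run alongside.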

[1] abbreviates: endogenous HiBit-tagged LRRK2 in HEK293 cells, 24 hours treatment, read-out: Endogenous WT DC50.
Where [2] appears, read: endogenous HiBit-tagged LRRK2 in HEK293 cells, 24 hours treatment, read-out: Endogenous WT Dmax.
Setting [3] is: endogenous HiBit-tagged LRRK2 in HEK293 cells, 24 hours treatment, read-out: **Endogenous WT Dmax (%).
The mark [4] stands for this setting: endogenous HiBit-tagged LRRK2 in HEK293 cells, 24 hours treatment, read-out: *Endogenous WT DC50.

Broadly, the DC50 is the concentration at which degradation of the target reaches its halfway point. In general, Dmax refers to the largest share of the target that was removed. For the molecule `CC1(Oc2cc3c(-c4cc(N5CCC(CN6CCC(F)(CC7CCN(c8ccc9c(c8F)CN(C8CCC(=O)NC8=O)C9=O)CC7)CC6)CC5)ncn4)n[nH]c3cc2F)CC1` (centres unmarked) [Compound 232, 3-{4-fluoro-5-[4-({4-fluoro-1-[(1-{6-[6-fluoro-5-(1-methylcyclopropoxy)-1H-indazol-3-yl]pyrimidin-4-yl}piperidin-4-yl)methyl]piperidin-4-yl}methyl)piperidin-1-yl]-1-oxo-2,3-dihydro-1H-isoindol-2-yl}piperidine-2,6-dione], the DC50 under setting [1] was < 10 nM. For the same molecule, the Dmax under setting [2] is 50 to 70%.

Regarding `CC1(Oc2ccc3n[nH]c(-c4cc(N5CC(OC6CCN(CC7CCN(c8ccc9c(c8F)CN(C8CCC(=O)NC8=O)C9=O)CC7)CC6)C5)ncn4)c3c2)CC1` (centres unmarked) [Compound 289, 3-{4-fluoro-5-[4-({4-[(1-{6-[5-(1-methylcyclopropoxy)-2H-indazol-3-yl]pyrimidin-4-yl}azetidin-3-yl)oxy]piperidin-1-yl}methyl)piperidin-1-yl]-1-oxo-2,3-dihydro-1H-isoindol-2-yl}piperidine-2,6-dione], the Dmax under setting [3] was ≥ 70%. In addition, the DC50 under setting [4] was < 10 nM.

Turning to `CC1(Oc2cc3c(-c4cc(N5CCC(O[C@H]6CC[C@H](CN7CCN(c8ccc9c(c8F)CN(C8CCC(=O)NC8=O)C9=O)CC7)CC6)CC5)ncn4)n[nH]c3cc2F)CC1` (some centres unmarked) [Compound 259, 3-[4-fluoro-1-oxo-5-(4-{[(1r,4r)-4-[(1-{6-[6-fluoro-5-(1-methylcyclopropoxy)-1H-indazol-3-yl]pyrimidin-4-yl}piperidin-4-yl)oxy]cyclohexyl]methyl}piperazin-1-yl)-2,3-dihydro-1H-isoindol-2-yl]piperidine-2,6-dione], the Dmax under setting [3] is 50 to 70%. The DC50 under setting [4] is < 10 nM.

With `COc1c(N2CCC(CN3CCN(CC4CCN(c5cc(-c6n[nH]c7ccc(OC8(C)CC8)cc67)ncn5)CC4)CC3(C)C)CC2)ccc2c1CN(C1CCC(=O)NC1=O)C2=O` (centres unmarked) [Compound 262, 3-{5-[4-({2,2-dimethyl-4-[(1-{6-[5-(1-methylcyclopropoxy)-1H-indazol-3-yl]pyrimidin-4-yl}piperidin-4-yl)methyl]piperazin-1-yl}methyl)piperidin-1-yl]-4-methoxy-1-oxo-2,3-dihydro-1H-isoindol-2-yl}piperidine-2,6-dione], the Dmax under setting [3] lay within 50 to 70%. The DC50 under setting [4] was < 10 nM.

For `CC1(Oc2ccc3[nH]nc(-c4cc(N5CCC(O[C@H]6CC[C@H](CN7CCN(c8ccc9c(c8F)CN(C8CCC(=O)NC8=O)C9=O)C(C)(C)C7)CC6)CC5)ncn4)c3c2)CC1` (some centres unmarked) [Compound 378, 3-[5-(2,2-dimethyl-4-{[(1r,4r)-4-[(1-{6-[5-(1-methylcyclopropoxy)-1H-indazol-3-yl]pyrimidin-4-yl}piperidin-4-yl)oxy]cyclohexyl]methyl}piperazin-1-yl)-4-fluoro-1-oxo-2,3-dihydro-1H-isoindol-2-yl]piperidine-2,6-dione], the DC50 under setting [1] is < 10 nM. In addition, under setting [2], the Dmax is 50 to 70%.

`CC1(Oc2cc3c(-c4cc(N5CCC(O[C@H]6CC[C@H](OC7CCN(c8ccc9c(c8F)CN(C8CCC(=O)NC8=O)C9=O)CC7)CC6)CC5)ncn4)n[nH]c3cn2)CC1` (some centres unmarked) [Compound 210, 3-[4-fluoro-5-[4-[4-[[1-[6-[5-(1-methylcyclopropoxy)-1H-pyrazolo[3,4-c]pyridin-3-yl]pyrimidin-4-yl]-4-piperidyl]oxy]cyclohexoxy]-1-piperidyl]-1-oxo-isoindolin-2-yl]piperidine-2,6-dione]: under setting [1], the DC50 was < 10 nM. Also, the Dmax under setting [2] was ≥ 70%.

Take `COc1c(N2CCC(CN3CCN(CC4CCN(c5cc(-c6n[nH]c7cnc(OC8(C)CC8)cc67)ncn5)CC4)CC3)CC2)ccc2c1CN(C1CCC(=O)NC1=O)C2=O` (centres unmarked) [Compound 253, 3-{4-methoxy-5-[4-({4-[(1-{6-[5-(1-methylcyclopropoxy)-1H-pyrazolo[3,4-c]pyridin-3-yl]pyrimidin-4-yl}piperidin-4-yl)methyl]piperazin-1-yl}methyl)piperidin-1-yl]-1-oxo-2,3-dihydro-1H-isoindol-2-yl}piperidine-2,6-dione]: the DC50 under setting [1] is < 10 nM. Besides, the Dmax under setting [2] lay in the range of 50 to 70%.

On to `COc1c(N2CCC(CN3CCN(CC4CCN(c5cc(-c6n[nH]c7ccc(OC8(C)CC8)cc67)ncn5)CC4)C[C@@H]3C)CC2)ccc2c1CN(C1CCC(=O)NC1=O)C2=O` (stereo partly drawn) [Compound 264, 3-[4-methoxy-5-(4-{[(2S)-2-methyl-4-[(1-{6-[5-(1-methylcyclopropoxy)-1H-indazol-3-yl]pyrimidin-4-yl}piperidin-4-yl)methyl]piperazin-1-yl]methyl}piperidin-1-yl)-1-oxo-2,3-dihydro-1H-isoindol-2-yl]piperidine-2,6-dione], for which the Dmax under setting [3] is ≥ 70%. Moreover, under setting [4], the DC50 was < 10 nM.

In the case of `CC1(Oc2ccc3n[nH]c(-c4cc(N5CCC(CN6CC(F)(CN7CCN(c8ccc9c(c8F)CN(C8CCC(=O)NC8=O)C9=O)CC7)C6)CC5)ncn4)c3c2)CC1` (centres unmarked) [Compound 301, 3-{4-fluoro-5-[4-({3-fluoro-1-[(1-{6-[5-(1-methylcyclopropoxy)-2H-indazol-3-yl]pyrimidin-4-yl}piperidin-4-yl)methyl]azetidin-3-yl}methyl)piperazin-1-yl]-1-oxo-2,3-dihydro-1H-isoindol-2-yl}piperidine-2,6-dione], the Dmax under setting [3] was ≥ 70%. Moreover, the DC50 under setting [4] was < 10 nM.

In the case of `COc1c(N2CCC(CN3CCC(F)(CN4CCN(c5cc(-c6n[nH]c7ccc(OC8(C)CC8)cc67)ncn5)CC4)CC3)CC2)ccc2c1CN(C1CCC(=O)NC1=O)C2=O` (centres unmarked) [Compound 212, 3-[5-[4-[[4-fluoro-4-[[4-[6-[5-(1-methylcyclopropoxy)-1H-indazol-3-yl]pyrimidin-4-yl]piperazin-1-yl]methyl]-1-piperidyl]methyl]-1-piperidyl]-4-methoxy-1-oxo-isoindolin-2-yl]piperidine-2,6-dione], under setting [1], the DC50 was < 10 nM. In addition, under setting [2], the Dmax lay in the range of 50 to 70%.

In the case of `CC1(Oc2cc3c(-c4cc(N5CCN(CC6(F)CCN(CC7CCN(c8cc9c(cc8F)C(=O)N(C8CCC(=O)NC8=O)C9)CC7)CC6)CC5)ncn4)[nH]nc3cc2F)CC1` (centres unmarked) [Compound 195, 3-[6-fluoro-5-[4-[[4-fluoro-4-[[4-[6-[6-fluoro-5-(1-methylcyclopropoxy)-2H-indazol-3-yl]pyrimidin-4-yl]piperazin-1-yl]methyl]-1-piperidyl]methyl]-1-piperidyl]-1-oxo-isoindolin-2-yl]piperidine-2,6-dione], the Dmax (endogenous HiBit-tagged LRRK2, HEK293 cells, 24 hours, read-out: **Endogenous WT Dmax (%)) was ≥ 70%. Besides, the DC50 (endogenous HiBit-tagged LRRK2, HEK293 cells, 24 hours, read-out: *Endogenous WT DC50) is < 10 nM.

For the molecule `CC1(Oc2cc3c(-c4cc(N5CCC(CN6CCN(CC7CCN(c8ccc9c(c8F)CN(C8CCC(=O)NC8=O)C9=O)CC7)CC6(C)C)CC5)ncn4)n[nH]c3cc2F)CC1` (centres unmarked) [Compound 274, 3-{4-fluoro-5-[4-({4-[(1-{6-[6-fluoro-5-(1-methylcyclopropoxy)-1H-indazol-3-yl]pyrimidin-4-yl}piperidin-4-yl)methyl]-3,3-dimethylpiperazin-1-yl}methyl)piperidin-1-yl]-1-oxo-2,3-dihydro-1H-isoindol-2-yl}piperidine-2,6-dione], under setting [3], the Dmax lay in the range of 50 to 70%. Also, the DC50 under setting [4] was < 10 nM.

As for `CC1(Oc2ccc3n[nH]c(-c4cc(N5CCC(CN6CCN(CC7(F)CCN(c8ccc9c(c8F)CN(C8CCC(=O)NC8=O)C9=O)CC7)CC6)CC5)ncn4)c3c2)CC1` (centres unmarked) [Compound 209, 3-[4-fluoro-5-[4-fluoro-4-[[4-[[1-[6-[5-(1-methylcyclopropoxy)-2H-indazol-3-yl]pyrimidin-4-yl]-4-piperidyl]methyl]piperazin-1-yl]methyl]-1-piperidyl]-1-oxo-isoindolin-2-yl]piperidine-2,6-dione], the DC50 under setting [1] is < 10 nM. Besides, under setting [2], the Dmax is ≥ 70%.

Regarding `CC1(Oc2ccc3n[nH]c(-c4cc(N5CCC(O[C@H]6C[C@H](N7CC8(CCN(c9ccc%10c(c9F)CN(C9CCC(=O)NC9=O)C%10=O)CC8)C7)C6)CC5)ncn4)c3c2)CC1` (some centres unmarked) [Compound 335, 3-(4-fluoro-1-oxo-5-{2-[(1r,3r)-3-[(1-{6-[5-(1-methylcyclopropoxy)-2H-indazol-3-yl]pyrimidin-4-yl}piperidin-4-yl)oxy]cyclobutyl]-2,7-diazaspiro[3.5]nonan-7-yl}-2,3-dihydro-1H-isoindol-2-yl)piperidine-2,6-dione], under setting [3], the Dmax fell in the range of 50 to 70%. In addition, the DC50 under setting [4] was < 10 nM.

For `COc1c(N2CCN(CC3(F)CCN(CC4CCN(c5cc(-c6[nH]nc7ccc(OC8(C)CC8)cc67)ncn5)CC4)CC3)CC2)ccc2c1CN(C1CCC(=O)NC1=O)C2=O` (centres unmarked) [Compound 246, 3-{5-[4-({4-fluoro-1-[(1-{6-[5-(1-methylcyclopropoxy)-2H-indazol-3-yl]pyrimidin-4-yl}piperidin-4-yl)methyl]piperidin-4-yl}methyl)piperazin-1-yl]-4-methoxy-1-oxo-2,3-dihydro-1H-isoindol-2-yl}piperidine-2,6-dione], the DC50 under setting [1] is < 10 nM. In addition, the Dmax under setting [2] is 50 to 70%.

On to `COc1c(N2CCC(C(C)(C)N3CCN(CC4CCN(c5cc(-c6n[nH]c7ccc(OC8(C)CC8)cc67)ncn5)CC4)CC3)CC2)ccc2c1CN(C1CCC(=O)NC1=O)C2=O` (centres unmarked) [Compound 318, 3-{4-methoxy-5-[4-(2-{4-[(1-{6-[5-(1-methylcyclopropoxy)-1H-indazol-3-yl]pyrimidin-4-yl}piperidin-4-yl)methyl]piperazin-1-yl}propan-2-yl)piperidin-1-yl]-1-oxo-2,3-dihydro-1H-isoindol-2-yl}piperidine-2,6-dione], for which the Dmax under setting [3] is ≥ 70%. Under setting [4], the DC50 was < 10 nM.
